Reference: patent US20120214847A1, “2-[1-PHENYL-5-HYDROXY-4a-SUBSTITUTED-HEXAHYDROCYCLOPENTA[F]INDAZOL-5-YL]ETHYL PHENYL DERIVATIVES AS GLUCOCORTICOID RECEPTOR LIGANDS” (Merck Sharp & Dohme Corp., priority 2009, published 2012)

Biological target: T1, human GR (Homo sapiens, UniProt P04150)
T1 construct: naturally expresses the human GR; endogenous in cells
T1 sequence (P04150 1-777): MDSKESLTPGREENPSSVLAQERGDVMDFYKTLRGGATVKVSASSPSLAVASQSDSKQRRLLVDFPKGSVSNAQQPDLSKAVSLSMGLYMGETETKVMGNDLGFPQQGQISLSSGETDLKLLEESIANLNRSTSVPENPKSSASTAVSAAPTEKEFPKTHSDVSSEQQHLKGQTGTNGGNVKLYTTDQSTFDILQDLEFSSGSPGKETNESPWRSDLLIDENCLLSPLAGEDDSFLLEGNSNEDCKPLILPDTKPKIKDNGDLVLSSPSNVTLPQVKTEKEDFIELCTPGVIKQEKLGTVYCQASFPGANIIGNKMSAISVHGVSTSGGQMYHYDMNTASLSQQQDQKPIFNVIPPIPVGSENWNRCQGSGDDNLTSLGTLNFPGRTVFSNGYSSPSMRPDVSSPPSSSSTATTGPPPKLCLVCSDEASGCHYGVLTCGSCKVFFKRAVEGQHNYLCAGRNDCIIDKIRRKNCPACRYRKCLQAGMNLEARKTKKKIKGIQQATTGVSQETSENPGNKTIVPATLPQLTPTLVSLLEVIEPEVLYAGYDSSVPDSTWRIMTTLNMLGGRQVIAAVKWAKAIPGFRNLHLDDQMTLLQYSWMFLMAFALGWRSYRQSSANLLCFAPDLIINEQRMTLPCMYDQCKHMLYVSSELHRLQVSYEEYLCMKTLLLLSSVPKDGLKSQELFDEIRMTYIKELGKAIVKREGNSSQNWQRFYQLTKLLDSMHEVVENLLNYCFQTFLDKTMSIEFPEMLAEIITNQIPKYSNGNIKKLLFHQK
Assay: Transrepression assay (GITAR), TNFα-β-lactamase reporter in U937 cells
Format: cell-based
Details: for EC50 / Transrepression U937 Cells GITAR Emax (%): U937 cells; for EC50: IP = inflection point; for Transrepression U937 Cells GITAR Emax (%) / Emax: activity repressed by 100 nM dexamethasone alone set as 100%; for Emax: U-937, U937 cells
Procedure, shortened: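 U937 cells stably carrying TNFα promoter–β-lactamase, endogenous GR, preincubated with compound 30–45 min at 37° C., then stimulated with 5 ng/ml PMA plus 100 ng/ml LPS for ~18 h. CCF2-AM read-out; repression by 100 nM dexamethasone set as 100%.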

SMILES	EC50	Transrepression U937 Cells GITAR Emax (%)	Emax
NC(=O)C(O)c1ccccc1CC[C@]1(O)CCC2=Cc3c(cnn3-c3ccc(F)cc3)C[C@@]21C1CC1 (single isomer, unassigned) [Example 3a]	85 nM	72%	–
OC(C[C@]1(O)CCC2=Cc3c(cnn3-c3ccc(F)cc3)C[C@@]21C1CC1)c1ccc(F)cn1 (single isomer, unassigned) [Example 79b]	282 nM	54%	–
CC[C@]12Cc3cnn(-c4ccccc4)c3C=C1CC[C@@]2(O)CC(O)c1ccccn1 (single isomer, unassigned) [Example 82a]	217 nM	54%	–
CC[C@]12Cc3cnn(-c4ccc(F)cc4)c3C=C1CC[C@@]2(O)CCc1ncccc1S(C)(=O)=O [Example 80, (4aS,5R)-4a-Ethyl-1-(4-fluorophenyl)-5-{2-[3-(methylsulfonyl)pyridin-2-yl]ethyl}-1,4,4a,5,6,7-hexahydrocyclopenta[f]indazol-5-ol]	56 nM	–	70%

Continued by falling EC50, values first:

EC50	Transrepression U937 Cells GITAR Emax (%)	Emax	SMILES
277 nM	44%	–	CC[C@]12Cc3cnn(-c4ccccc4)c3C=C1CC[C@@]2(O)CC(O)c1ccccn1 (single isomer, unassigned) [Example 82b]
53 nM	–	68%	CC[C@]12Cc3cnn(-c4ccccc4)c3C=C1CC[C@@]2(O)CCc1ncccc1S(=O)(=O)C(C)C [Example 81, (4aS,5R)-4a-Ethyl-5-{2-[3-(iso-propylsulfonyl)pyridin-2-yl]ethyl}-1-phenyl-1,4,4a,5,6,7-hexahydrocyclopenta[f]indazol-5-ol]
8 nM	–	79%	OCc1ccccc1CC[C@]1(O)CCC2=Cc3c(cnn3-c3ccc(F)cc3)C[C@@]21C1CC1 [Example 2, (4aR,5R)-4a-Cyclopropyl-1-(4-fluorophenyl)-5-{2-[2-(hydroxymethyl)phenyl]ethyl}-1,4,4a,5,6,7-hexahydrocyclopenta[f]indazol-5-ol]
